Experimental data as given in ChEMBL document CHEMBL5380862, “Unsymmetrical Phosphodiesters as GPR84 Antagonists with High Blood Exposure for the Treatment of Lung Inflammation” (J Med Chem, 2023).
Active and inactive are the calls of the source. The rule behind the calls is not given here.

Tests used:
[1] = molecular target: G-protein coupled receptor 84 (Homo sapiens, UniProt Q9NQS5); assay: Antagonist activity at human GPR84 expressed in HEK293 cells co-expressing Galpha16 assessed as inhibition of 6-OAU induced calcium response incubated for 10 mins by calcium mobilization assay; format: functional, cell-based
[2] = system: Mus musculus; assay: Protection against C57BL/6 mouse model of LPS-induced acute […] injury assessed as reduction in total cells in BALF at 100 mg/kg, po pre-treated with compound for 30 mins followed by LPS-stimulation for 12 hrs and measured 24 hrs post LPS stimulation by flow cytometric analysis; format: functional, organism-based; details: time 24.5 hrs
[3] = system: Mus musculus; assay: (§1) Protection against C57BL/6 mouse model of LPS-induced acute […] injury assessed as reduction in CD45positive immune cells in BALF at 100 mg/kg, po pre-treated with compound for 30 mins followed by LPS-stimulation for 12 hrs and measured 24 hrs post LPS stimulation by flow cytometric analysis; format: functional, organism-based; details: time 24.5 hrs
[4] = system: Mus musculus; assay: as §1, with “CD11bpositive myeloid” for “immune”; format: functional, organism-based; details: time 24.5 hrs
[5] = system: Mus musculus; assay: as §1, with “CD11bpositive Ly6Gpositive neutrophils” for “immune cells”; format: functional, organism-based; details: time 24.5 hrs
[6] = system: Mus musculus; assay: Protection against C57BL/6 mouse model of LPS-induced acute […] injury assessed as amelioration of pulmonary congestion at 100 mg/kg, po pre-treated with compound for 30 mins followed by LPS-stimulation for 12 hrs and measured 24 hrs post LPS stimulation by H&E staining based analysis; format: functional, organism-based; details: time 24.5 hrs
[7] = system: Mus musculus; assay: Protection against C57BL/6 mouse model of LPS-induced acute […] injury assessed as amelioration of thickening of alveolar wall at 100 mg/kg, po pre-treated with compound for 30 mins followed by LPS-stimulation for 12 hrs and measured 24 hrs post LPS stimulation by H&E staining based analysis; format: functional, organism-based; details: time 24.5 hrs
[8] = system: Mus musculus; assay: Protection against C57BL/6 mouse model of LPS-induced acute […] injury assessed as amelioration of […] edema at 100 mg/kg, po pre-treated with compound for 30 mins followed by LPS-stimulation for 12 hrs and measured 24 hrs post LPS stimulation by H&E staining based analysis; format: functional, organism-based; details: time 24.5 hrs

G-protein coupled receptor 84, sequence (Q9NQS5 whole entry): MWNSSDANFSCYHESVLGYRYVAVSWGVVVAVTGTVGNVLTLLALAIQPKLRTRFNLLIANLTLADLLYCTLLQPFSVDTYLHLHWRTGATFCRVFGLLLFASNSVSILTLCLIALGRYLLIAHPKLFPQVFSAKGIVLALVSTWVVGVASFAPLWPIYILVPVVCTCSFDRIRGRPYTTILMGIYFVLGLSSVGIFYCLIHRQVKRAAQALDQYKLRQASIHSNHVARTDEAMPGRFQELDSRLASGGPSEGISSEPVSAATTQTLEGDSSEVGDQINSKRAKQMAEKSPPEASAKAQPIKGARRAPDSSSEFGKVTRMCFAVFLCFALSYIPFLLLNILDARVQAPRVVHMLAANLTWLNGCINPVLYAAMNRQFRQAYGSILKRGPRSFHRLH

SMILES	IC50 [1]	also measured
COc1cccc2c1Sc1ccccc1C=C2OP(=O)(O)Oc1ccc2ccccc2c1	609 nM	–
COc1cccc2c1Sc1ccccc1C=C2OP(=O)(O)OC1C(C)(C)CCCC1(C)C	110 nM	–
COc1cccc2c1Sc1ccccc1C=C2OP(=O)(O)OC12CC3CC(CC(C3)C1)C2	340 nM	–
COc1cccc2c1Sc1ccccc1C=C2OP(=O)(O)OC1CCOC1 (stereo unspecified)	3990 nM	–
CCOC(=O)[C@H](CS)NC(C)=O	–	Activity [2]: Active; Activity [3]: Active; Activity [4]: Active; Activity [5]: Active; Activity [6]: Active; Activity [7]: Active; Activity [8]: Active
CC1(C)[C@@H]2CC[C@@](C)(C2)[C@@H]1OP(=O)(O)OC1=Cc2ccccc2Sc2ccccc21	166 nM	–
CC1(C)[C@@H]2CC[C@@](C)(C2)[C@@H]1OP(=O)(O)OC1=Cc2ccccc2Sc2c(OC(F)(F)F)cccc21	12 nM	–
COc1cccc2c1Sc1ccccc1C=C2OP(=O)(O)O[C@@H]1C[C@H](C)CC[C@H]1C(C)C	68 nM	–
COc1cccc2c1Sc1ccccc1C=C2OP(=O)(O)OC1CCCCC1C (stereo unspecified)	1730 nM	–
CCOCCOCCOP(=O)(O)OC1=Cc2ccccc2Sc2c(OC)cccc21	21800 nM	–
CCCCCCCCCOP(=O)(O)OC1=Cc2ccccc2Sc2c(OC)cccc21	194 nM	–
COc1cccc2c1Sc1ccccc1C=C2OP(=O)(O)OC1CCC(C)CC1 (stereo unspecified)	4010 nM	–
COc1cccc2c1Sc1ccccc1C=C2OP(=O)(O)O[C@H]1C[C@@H](C)CC[C@@H]1C(C)C	91 nM	–
CC1(C)[C@@H]2CC[C@@](C)(C2)[C@@H]1OP(=O)(O)OC1=Cc2ccccc2Oc2ccccc21	711 nM	–
COc1cccc2c1Sc1ccccc1C=C2OP(=O)(O)Oc1cc(C)ccc1C(C)C	658 nM	–
COc1cccc2c1Sc1ccccc1C=C2OP(=O)(O)OC	2830 nM	–
COc1cccc2c1Sc1ccccc1C=C2OP(=O)(O)OC1CC1	39500 nM	–
CC1(C)[C@@H]2CC[C@@](C)(C2)[C@@H]1OP(=O)(O)OC1=Cc2c(F)cccc2Sc2ccccc21	554 nM	–
COc1cccc2c1Sc1ccccc1C=C2OP(=O)(O)Oc1cccc2ccccc12	130 nM	–
CC/C=C\CCCCOP(=O)(O)OC1=Cc2ccccc2Sc2c(OC)cccc21	517 nM	–
COc1cccc2c1Sc1ccccc1C=C2OP(=O)(O)OC12CC3CC(C)(CC(C)(C3)C1)C2	126 nM	–
COc1cccc2c1Sc1ccccc1C=C2OP(=O)(O)Oc1cc(C(C)C)ccc1C	196 nM	–
CCCCCCCCP(=O)(O)OC1=Cc2ccccc2Sc2c(OC)cccc21	219 nM	–
CCCCCCOP(=O)(O)OC1=Cc2ccccc2Sc2c(OC)cccc21	325 nM	–
CC1(C)[C@@H]2CC[C@@](C)(C2)[C@@H]1OP(=O)(O)O[C@@H]1C(C)(C)[C@@H]2CC[C@@]1(C)C2	29600 nM	–
